Molecules are shown by their SMILES.

The assay is described as follows: Inhibition of P-glycoprotein-mediated rhodamine 123 absorption in guinea-pig ileum. Format: tissue-based. Conditions: Cavia porcellus.

Turning to `CC/C(=C(\c1ccccc1)c1ccc(OCCN(C)C)cc1)c1ccccc1` [TAMOXIFEN], the EC50 – broadly, the concentration giving half of the maximal effect – was 39.4 µM.
For `COc1cccc(CCc2ccccc2OCc2ccccn2)c1` the value was 14.7 µM.

Values taken from ChEMBL document CHEMBL1157451, “Effect of some P-glycoprotein modulators on Rhodamine-123 absorption in guinea-pig ileum” (Bioorg Med Chem Lett, 2008).
